The text below walks through data of the supplement of paper PMC10307832.

Common to all, as to test: relative viability (nuclei count vs DMSO), 5 days (fraction); higher = more cells survive
Compound in experiment [1]: C1=CC2=NC=CN=C2C=C1/C=C/3\C(=O)NC(=O)S3 + CS(=O)(=O)N1CCN(Cc2cc3nc(-c4cccc5[nH]ncc45)nc(N4CCOCC4)c3s2)CC1 [Pictilisib] (partner 1 µM)
The procedure, abridged:
(§1)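 Relative viability was taken as the ratio of nuclei in treated wells to nuclei in vehicle wells. Lung cancer cell lines in 1536-well plates received compounds by pin tool one day after seeding, either one drug alone or a fixed anchor-drug dose plus five library-drug doses (not always all listed) in √10 steps. Nuclei were counted on 4× images after 5 days of treatment, and values are medians of duplicate plates.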

Compound in the experiment “BGJ398 + Foretinib”: CCN1CCN(c2ccc(Nc3cc(N(C)C(=O)Nc4c(Cl)c(OC)cc(OC)c4Cl)ncn3)cc2)CC1 [BGJ398] + COc1cc2c(Oc3ccc(NC(=O)C4(C(=O)Nc5ccc(F)cc5)CC4)cc3F)ccnc2cc1OCCCN1CCOCC1 [Foretinib] (partner 0.25 µM)
The procedure, abridged: as §1

Compound in the experiment “BGJ398 + Lapatinib”: CCN1CCN(c2ccc(Nc3cc(N(C)C(=O)Nc4c(Cl)c(OC)cc(OC)c4Cl)ncn3)cc2)CC1 [BGJ398] + CS(=O)(=O)CCNCc1ccc(-c2ccc3ncnc(Nc4ccc(OCc5cccc(F)c5)c(Cl)c4)c3c2)o1 [Lapatinib] (partner 2 µM)
The procedure, abridged: as §1

Compound in the experiment “BGJ398 + Vorinostat”: CCN1CCN(c2ccc(Nc3cc(N(C)C(=O)Nc4c(Cl)c(OC)cc(OC)c4Cl)ncn3)cc2)CC1 [BGJ398] + O=C(CCCCCCC(=O)Nc1ccccc1)NO [Vorinostat] (partner 1 µM)
The procedure, abridged:
as §1

Consider UMC-11, for which the relative viability in experiment [1] (first compound 0.02 µM) was 0.839; in experiment [1] (first compound 0.06325 µM), 0.914; in experiment [1] (first compound 0.2 µM), 0.882; in experiment [1] (first compound 0.6325 µM), 0.786; in experiment [1] (first compound 2 µM), 0.952; with BGJ398 + Foretinib (first compound 0.01 µM), 0.962. The relative viability with BGJ398 + Foretinib (first compound 0.03162 µM) was 1; in the experiment with BGJ398 + Foretinib (first compound 0.1 µM), 1.14; with BGJ398 + Foretinib (first compound 0.3162 µM), 0.977; with BGJ398 + Foretinib (first compound 1 µM), 0.924; with BGJ398 + Lapatinib (first compound 0.01 µM) it was 1.14; with BGJ398 + Lapatinib (first compound 0.03162 µM), 0.987. Also, the relative viability with BGJ398 + Lapatinib (first compound 0.1 µM) came out at 0.991; with BGJ398 + Lapatinib (first compound 0.3162 µM), 0.924; in the experiment with BGJ398 + Lapatinib (first compound 1 µM), 0.736; with BGJ398 + Vorinostat (first compound 0.01 µM) it was 0.363; in the experiment with BGJ398 + Vorinostat (first compound 0.03162 µM) it was 0.407; with BGJ398 + Vorinostat (first compound 0.1 µM), 0.376. The relative viability with BGJ398 + Vorinostat (first compound 0.3162 µM) turned out to be 0.376; with BGJ398 + Vorinostat (first compound 1 µM) it was 0.382.
